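Where inhibition never reached the appropriate level, the endpoint shown equals the highest concentration tested. Otherwise, values were interpolated linearly from a five-concentration, 48-hour dose response in 96-well plates. GI50 marks 50% less growth.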 Active and inactive are the calls of the source. No stated cut-off is given here; in the data, active = GI50 up to about 1.1 µM and inactive = higher.
What was measured:
Assay in all cases: inhibition of tumour cell growth, NCI panel, 48 h
KM12 = system: KM12
MDA-MB-231 = system: MDA-MB-231
PC-3 = system: PC-3
SF-295 = system: SF-295
MDA-N = system: MDA-N
HCC 2998 = system: HCC 2998
CCRF-CEM = system: CCRF-CEM
NCI/ADR-RES = system: NCI/ADR-RES
SW-620 = system: SW-620
UACC-257 = system: UACC-257
SNB-75 = system: SNB-75
SF-268 = system: SF-268
SK-MEL-5 = system: SK-MEL-5
U-251 = system: U-251
SNB-19 = system: SNB-19
MCF7 = system: MCF7
M14 = system: M14
786-0 = system: 786-0
SF-539 = system: SF-539
A549 = system: A549
SK-MEL-28 = system: SK-MEL-28
TK-10 = system: TK-10
K562 = system: K562
OVCAR-8 = system: OVCAR-8
EKVX = system: EKVX
HL-60 = system: HL-60
Hs-578T = system: Hs-578T
HCT-116 = system: HCT-116
NCI-H226 = system: NCI-H226
HOP-62 = system: HOP-62
HT-29 = system: HT-29
IGROV-1 = system: IGROV-1
Malme-3M = system: Malme-3M
BT-549 = system: BT-549
HOP-92 = system: HOP-92
MDA-MB-435 = system: MDA-MB-435
NCI-H23 = system: NCI-H23
T47D = system: T47D
OVCAR-3 = system: OVCAR-3
CAKI-1 = system: CAKI-1
SK-OV-3 = system: SK-OV-3
RXF 393 = system: RXF 393
SN12C = system: SN12C
COLO 205 = system: COLO 205
NCI-H460 = system: NCI-H460
LOX IMVI = system: LOX IMVI
OVCAR-4 = system: OVCAR-4
SK-MEL-2 = system: SK-MEL-2
MOLT-4 = system: MOLT-4
UO-31 = system: UO-31
ACHN = system: ACHN
UACC-62 = system: UACC-62
SR = system: SR
RPMI-8226 = system: RPMI-8226
OVCAR-5 = system: OVCAR-5
DU-145 = system: DU-145
HCT-15 = system: HCT-15
NCI-H522 = system: NCI-H522
A498 = system: A498

CC(C)NC(=O)OCCN=c1c2ccccc2ccc2ccccc12
GI50 (KM12): 44.7 µM (inactive)
GI50 (MDA-MB-231): 32.1 µM (inactive)
GI50 (PC-3): 23.8 µM (inactive)
GI50 (SF-295): 38.2 µM (inactive)
GI50 (MDA-N): 40.6 µM (inactive)
GI50 (HCC 2998): 40 µM (inactive)
GI50 (CCRF-CEM): 21 µM (inactive)
GI50 (NCI/ADR-RES): 32.6 µM (inactive)
GI50 (SW-620): 64.1 µM (inactive)
GI50 (UACC-257): 42.6 µM (inactive)
GI50 (SNB-75): 62.5 µM (inactive)
GI50 (SF-268): 63.7 µM (inactive)
GI50 (SK-MEL-5): 17.6 µM (inactive)
GI50 (U-251): 38.3 µM (inactive)
GI50 (SNB-19): 24.4 µM (inactive)
GI50 (MCF7): 44.9 µM (inactive)
GI50 (M14): 36 µM (inactive)
GI50 (786-0): 59.4 µM (inactive)
GI50 (SF-539): 53.2 µM (inactive)
GI50 (A549): 29.3 µM (inactive)
GI50 (SK-MEL-28): 32.4 µM (inactive)
GI50 (TK-10): 50.7 µM (inactive)
GI50 (K562): 25 µM (inactive)
GI50 (OVCAR-8): 57.1 µM (inactive)
GI50 (EKVX): 35 µM (inactive)
GI50 (HL-60): 15.8 µM (inactive)
GI50 (Hs-578T): 35.2 µM (inactive)
GI50 (HCT-116): 34.7 µM (inactive)
GI50 (NCI-H226): 30.4 µM (inactive)
GI50 (HOP-62): 41.9 µM (inactive)
GI50 (HT-29): 39.2 µM (inactive)
GI50 (IGROV-1): 47.5 µM (inactive)
GI50 (Malme-3M): 46.1 µM (inactive)
GI50 (BT-549): 49.4 µM (inactive)
GI50 (HOP-92): 27.2 µM (inactive)
GI50 (MDA-MB-435): 46.6 µM (inactive)
GI50 (NCI-H23): > 100 µM (inactive)
GI50 (T47D): 15.6 µM (inactive)
GI50 (OVCAR-3): 34.4 µM (inactive)
GI50 (CAKI-1): 35.9 µM (inactive)
GI50 (SK-OV-3): 47.6 µM (inactive)
GI50 (RXF 393): 36.8 µM (inactive)
GI50 (SN12C): 34.8 µM (inactive)
GI50 (COLO 205): 27.7 µM (inactive)
GI50 (NCI-H460): 45.6 µM (inactive)
GI50 (LOX IMVI): 44.9 µM (inactive)
GI50 (OVCAR-4): 33.9 µM (inactive)
GI50 (SK-MEL-2): 23.7 µM (inactive)
GI50 (MOLT-4): 24.4 µM (inactive)
GI50 (UO-31): 23.5 µM (inactive)
GI50 (ACHN): 43.1 µM (inactive)
GI50 (UACC-62): 31.4 µM (inactive)
GI50 (SR): 24.8 µM (inactive)
GI50 (RPMI-8226): > 10 µM (inactive)
GI50 (OVCAR-5): 88.9 µM (inactive)
GI50 (DU-145): 56.2 µM (inactive)
GI50 (HCT-15): 38.7 µM

O=c1[nH]c(=O)n(C2CC(O)C(CO)O2)cc1/N=N/NCc1ccccc1 (stereo unspecified)
GI50 (KM12): > 100 µM (inactive)
GI50 (MDA-MB-231): > 100 µM (inactive)
GI50 (PC-3): > 100 µM (inactive)
GI50 (SF-295): 59 µM (inactive)
GI50 (MDA-N): > 100 µM (inactive)
GI50 (CCRF-CEM): > 100 µM (inactive)
GI50 (NCI/ADR-RES): > 100 µM (inactive)
GI50 (UACC-257): > 100 µM (inactive)
GI50 (SNB-75): > 100 µM (inactive)
GI50 (SF-268): > 100 µM (inactive)
GI50 (SK-MEL-5): > 100 µM (inactive)
GI50 (U-251): > 100 µM (inactive)
GI50 (SNB-19): > 100 µM (inactive)
GI50 (MCF7): > 100 µM (inactive)
GI50 (M14): > 100 µM (inactive)
GI50 (786-0): > 100 µM (inactive)
GI50 (A549): > 100 µM (inactive)
GI50 (SK-MEL-28): > 100 µM (inactive)
GI50 (TK-10): > 100 µM (inactive)
GI50 (K562): > 100 µM (inactive)
GI50 (OVCAR-8): > 100 µM (inactive)
GI50 (EKVX): > 100 µM (inactive)
GI50 (HL-60): > 100 µM (inactive)
GI50 (Hs-578T): > 100 µM (inactive)
GI50 (HCT-116): > 100 µM (inactive)
GI50 (NCI-H226): > 100 µM (inactive)
GI50 (HOP-62): > 100 µM (inactive)
GI50 (HT-29): > 100 µM (inactive)
GI50 (IGROV-1): > 100 µM (inactive)
GI50 (Malme-3M): > 100 µM (inactive)
GI50 (BT-549): > 100 µM (inactive)
GI50 (MDA-MB-435): > 100 µM (inactive)
GI50 (NCI-H23): > 100 µM (inactive)
GI50 (T47D): > 100 µM (inactive)
GI50 (OVCAR-3): > 100 µM (inactive)
GI50 (NCI-H522): > 100 µM (inactive)
GI50 (CAKI-1): > 100 µM (inactive)
GI50 (SK-OV-3): > 100 µM (inactive)
GI50 (RXF 393): > 100 µM (inactive)
GI50 (SN12C): > 100 µM (inactive)
GI50 (COLO 205): > 10 µM (inactive)
GI50 (NCI-H460): > 100 µM (inactive)
GI50 (LOX IMVI): > 100 µM (inactive)
GI50 (OVCAR-4): > 100 µM (inactive)
GI50 (MOLT-4): > 100 µM (inactive)
GI50 (UO-31): > 100 µM (inactive)
GI50 (ACHN): > 100 µM (inactive)
GI50 (UACC-62): > 100 µM (inactive)
GI50 (SR): > 100 µM (inactive)
GI50 (OVCAR-5): > 100 µM (inactive)
GI50 (DU-145): > 100 µM (inactive)
GI50 (HCT-15): > 100 µM

Nc1nc(Cl)cc(NCC2(CO)CCC(CCc3ccccc3)C2)n1 (stereo unspecified)
GI50 (KM12): 13.9 µM (inactive)
GI50 (MDA-MB-231): 16.6 µM (inactive)
GI50 (PC-3): 19.3 µM (inactive)
GI50 (SF-295): 0.687 µM (active)
GI50 (MDA-N): 14.2 µM (inactive)
GI50 (HCC 2998): 17.5 µM (inactive)
GI50 (NCI/ADR-RES): 11.9 µM (inactive)
GI50 (SW-620): 2.02 µM (inactive)
GI50 (UACC-257): 6.22 µM (inactive)
GI50 (SNB-75): 20.8 µM (inactive)
GI50 (SF-268): 16.6 µM (inactive)
GI50 (SK-MEL-5): 0.0665 µM (active)
GI50 (U-251): 15 µM (inactive)
GI50 (SNB-19): 15.9 µM (inactive)
GI50 (MCF7): 11.7 µM (inactive)
GI50 (M14): 13.7 µM (inactive)
GI50 (786-0): 15.7 µM (inactive)
GI50 (SF-539): 17.9 µM (inactive)
GI50 (A549): 12.6 µM (inactive)
GI50 (SK-MEL-28): 19.6 µM (inactive)
GI50 (TK-10): 18 µM (inactive)
GI50 (K562): 0.962 µM (active)
GI50 (OVCAR-8): 14.6 µM (inactive)
GI50 (EKVX): 0.771 µM (active)
GI50 (HL-60): 6.21 µM (inactive)
GI50 (Hs-578T): 21.3 µM (inactive)
GI50 (HCT-116): 2.29 µM (inactive)
GI50 (NCI-H226): 16.5 µM (inactive)
GI50 (HOP-62): 1.05 µM (active)
GI50 (HT-29): 7.94 µM (inactive)
GI50 (IGROV-1): 17.5 µM (inactive)
GI50 (Malme-3M): 16 µM (inactive)
GI50 (BT-549): 14 µM (inactive)
GI50 (HOP-92): 15.5 µM (inactive)
GI50 (MDA-MB-435): 14.3 µM (inactive)
GI50 (NCI-H23): 2.88 µM (inactive)
GI50 (T47D): 0.877 µM (active)
GI50 (OVCAR-3): 7.45 µM (inactive)
GI50 (NCI-H522): 11.4 µM (inactive)
GI50 (CAKI-1): 13.5 µM (inactive)
GI50 (SK-OV-3): 17.5 µM (inactive)
GI50 (RXF 393): 14.8 µM (inactive)
GI50 (SN12C): 16 µM (inactive)
GI50 (COLO 205): 12.8 µM (inactive)
GI50 (NCI-H460): 12 µM (inactive)
GI50 (A498): 12.8 µM (inactive)
GI50 (LOX IMVI): 7.89 µM (inactive)
GI50 (OVCAR-4): 11.9 µM (inactive)
GI50 (SK-MEL-2): 18.5 µM (inactive)
GI50 (MOLT-4): 2.7 µM (inactive)
GI50 (UO-31): 18 µM (inactive)
GI50 (ACHN): 13.8 µM (inactive)
GI50 (UACC-62): 13.2 µM (inactive)
GI50 (RPMI-8226): 2.86 µM (inactive)
GI50 (OVCAR-5): 14.5 µM (inactive)
GI50 (DU-145): 14.8 µM (inactive)
GI50 (HCT-15): 16.3 µM
